How the values were obtained:
WEE1 kinase enzyme = WEE1 kinase enzyme (Homo sapiens (Human), UniProt P30291); experiment: WEE1 IC50 determination, LanthaScreen Terbium Labeled TR-FRET kinase assay; format: biochemical; conditions: WEE1 enzyme 1 nM, ATP 10 μM
Description: IC50 values of compounds against WEE1 kinase enzyme were determined by LanthaScreen™ Terbium Labeled TR-FRET assay. Kinase assays were performed in 1X kinase buffer (#PV6135, Invitrogen, Life Technologies Grand Island, N.Y.) where total reaction volume was 10 μL in low-volume 384-well plates (#4511, Corning). Serially diluted compounds (3-fold) were incubated with WEE1 Enzyme (1 nM) (#PR7373A, Invitrogen, Life Technologies, Grand Island, N.Y.) for 10 min; a mixture of ATP (10 μM) (#A1852, Sigma, St. Louis, Mo.) and fluorescent-PolyGT substrate (200 nM) (#PV3610, Invitrogen, Life Technologies Grand Island, N.Y.) was added and incubated in dark at room temperature for 1 h. After 1 h, 10 μL stop solution containing Terbium labeled antibody (4 nM) (#PV3529, Invitrogen, Life Technologies Grand Island, N.Y.) and EDTA (#E5134, Sigma, St. Louis, Mo.) (20 mM) in TR-FRET dilution buffer (#PV3574, Invitrogen, Life Technologies Grand Island, N.Y.) was added. Readings were taken in a Synergy Neo Plate reader (BioTek, Winooski, Vt.) at single excitation of 340 nm and dual emission at 495 nm and 520 nm respectively.
The % activity of test samples was calculated as (Sample−Min)*100/(Max−Min). [Max: DMSO control, complete reaction with enzyme & DMSO and Min: No enzyme & DMSO].

A427 cells = experiment: Cytotoxicity assay in A427 cell line (resazurin); format: cell-based; conditions: Homo sapiens, A-427; A427 lung epithelial cell line, 72 hr, inhibition of proliferation
Description: A427 (HTB-53; ATCC), a lung epithelial cell line, was seeded in medium (MEM, 41090101; Gibco) at a cell count of 1500 cells per 100 μL per well in a 96 well edge plate (167425; ThermoFisher). Cells were allowed to grow at 37° C. for 24 hr in 5% CO2 environment (culture conditions) in a Nuaire incubator (humidified). Serially diluted test compounds (100 μL) within the desired testing concentration ranges were added to the culture plate and the cells were further incubated in culture conditions for 72 hr. The experiment was terminated at the designated incubation time by replacing the medium with 100 μL of 1 mM of resazurin (R7017; Sigma) prepared in culture medium, and the plates were further incubated in culture conditions for 4-6 hr. Fluorescence was recorded using a multimodal plate reader (Biotek Synergy Neo) at an excitation wavelength of 535 nm and emission wavelength of 590 nm to obtain relative fluorescence units. Data were analysed as follows: the background fluorescence (blank containing only medium) value was subtracted from each reading and normalized with the vehicle control (DMSO treated cells) to obtain percent survival/proliferation. Percent survival was subtracted from 100 to get the percent inhibition of proliferation which was used to calculate IC50 values. Potency of compounds in other cell lines (such as A549, AsPc-1, Panc 10.05, A172, U-87MG) may be determined in an analogous manner.

PKMYT1 kinase = PKMYT1 kinase (Homo sapiens (Human), UniProt Q99640); experiment: PKMYT1 IC50 determination, HotSpot Kinase Assay; format: biochemical; conditions: 10 μM ATP, 33P-ATP, Myelin Basic Protein substrate
Description: Inhibition of PKMYT1 kinase activity by test compounds was measured by the HotSpot Kinase Assay at Reaction Biology Corporation (Malvern, Pa.). Briefly, Myelin Basic Protein substrate was prepared in Reaction Buffer (20 mM Hepes (pH 7.5), 10 mM MgCl2, 1 mM EGTA, 0.01% Brij35, 0.02 mg/mL BSA, 0.1 mM Na3VO4, 2 mM DTT, 1% DMSO). PKMYT1 kinase was delivered into the substrate solution and gently mixed. Test compounds in 100% DMSO were added into the kinase reaction mixture by Acoustic technology (Echo550; nanoliter range) and incubated for 20 min at room temperature. ^33P-ATP was delivered into the reaction mixture to initiate the reaction. Reactions were carried out at 10 μM ATP. After a 2 hour incubation at room temperature, kinase activity was detected by P81 filter-binding method. […] A nonlinear regression model with a sigmoidal dose response and variable slope within GraphPad Prism (GraphPad Software, San Diego, Calif.) was used to calculate the IC50 value of individual test compounds.

WEE1 kinase enzyme, sequence (P30291 whole entry): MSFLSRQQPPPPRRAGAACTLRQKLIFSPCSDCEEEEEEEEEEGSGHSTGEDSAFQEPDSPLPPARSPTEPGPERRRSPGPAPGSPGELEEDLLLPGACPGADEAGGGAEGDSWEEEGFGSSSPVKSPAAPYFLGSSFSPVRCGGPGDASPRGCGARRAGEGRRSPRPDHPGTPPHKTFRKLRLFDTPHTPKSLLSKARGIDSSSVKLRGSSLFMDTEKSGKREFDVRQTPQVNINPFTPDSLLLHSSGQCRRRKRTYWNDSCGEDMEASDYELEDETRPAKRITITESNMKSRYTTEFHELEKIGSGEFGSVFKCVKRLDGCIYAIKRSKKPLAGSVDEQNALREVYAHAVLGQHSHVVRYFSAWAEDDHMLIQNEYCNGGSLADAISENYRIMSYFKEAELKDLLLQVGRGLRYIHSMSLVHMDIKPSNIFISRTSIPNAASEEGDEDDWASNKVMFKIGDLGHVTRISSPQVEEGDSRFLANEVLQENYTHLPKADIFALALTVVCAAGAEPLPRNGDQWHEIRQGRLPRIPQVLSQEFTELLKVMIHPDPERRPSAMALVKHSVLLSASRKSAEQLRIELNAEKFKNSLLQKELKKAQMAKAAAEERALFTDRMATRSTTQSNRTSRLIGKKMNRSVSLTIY
PKMYT1 kinase, sequence (Q99640 whole entry): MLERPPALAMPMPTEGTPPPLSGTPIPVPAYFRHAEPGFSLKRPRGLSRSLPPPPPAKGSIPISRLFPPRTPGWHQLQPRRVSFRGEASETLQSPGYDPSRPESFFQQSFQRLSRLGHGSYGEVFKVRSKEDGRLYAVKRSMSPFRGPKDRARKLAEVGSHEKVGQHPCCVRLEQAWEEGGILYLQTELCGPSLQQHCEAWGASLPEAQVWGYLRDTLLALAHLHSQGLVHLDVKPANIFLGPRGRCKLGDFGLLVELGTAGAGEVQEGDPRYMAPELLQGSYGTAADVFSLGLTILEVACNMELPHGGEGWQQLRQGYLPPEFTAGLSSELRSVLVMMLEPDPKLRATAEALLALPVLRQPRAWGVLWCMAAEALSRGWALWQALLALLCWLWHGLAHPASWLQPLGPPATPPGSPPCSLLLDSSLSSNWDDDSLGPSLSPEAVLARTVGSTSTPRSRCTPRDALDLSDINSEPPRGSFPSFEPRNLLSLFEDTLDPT

| SMILES | IC50 (WEE1 kinase enzyme) | IC50 (PKMYT1 kinase) | IC50 (A427 cells) |
| --- | --- | --- | --- |
| CC(C)n1c(=O)c2cnc(Nc3ccc4c(c3)CNCC4)nc2n1-c1nc(C(C)(C)C#N)ccc1F [1.322, 2-(5-fluoro-6-(2-isopropyl-3-oxo-6-(1,2,3,4-tetrahydroisoquinolin-7-ylamino)-2,3-dihydro-1H-pyrazolo[3,4-d]pyrimidin-1-yl)pyridin-2-yl)-2-methylpropanenitrile] |  | 7490 nM |  |
| CC(C)n1c(=O)c2cnc(Nc3ccc4c(c3)CNCC4)nc2n1-c1ccc(F)c(C(C)(C)O)n1 [1.250, 1-(5-fluoro-6-(2-hydroxypropan-2-yl)pyridin-2-yl)-2-isopropyl-6-((1,2,3,4-tetrahydroisoquinolin-7-yl)amino)-1,2-dihydro-3H-pyrazolo[3,4-d]pyrimidin-3-one] | 8 nM | 13500 nM |  |
| CC(C)n1c(=O)c2cnc(Nc3ccc4c(c3)CNCC4)nc2n1-c1csc(C2CC2)n1 [1.465, 1-(2-cyclopropylthiazol-4-yl)-2-isopropyl-6-((1,2,3,4-tetrahydroisoquinolin-7-yl)amino)-1,2-dihydro-3H-pyrazolo[3,4-d]pyrimidin-3-one] | 45 nM | > 30000 nM | > 30000 nM |
| CC(C)n1c(=O)c2cnc(Nc3ccc4c(c3)CCNC4)nc2n1-c1csc(C2CC2)n1 [1.464, 1-(2-cyclopropylthiazol-4-yl)-2-isopropyl-6-((1,2,3,4-tetrahydroisoquinolin-6-yl)amino)-1,2-dihydro-3H-pyrazolo[3,4-d]pyrimidin-3-one] | 49 nM | 28800 nM | 24600 nM |
| CC(C)n1c(=O)c2cnc(Nc3ccc4c(c3)CCNC4)nc2n1-c1nc(C(C)(C)C#N)ccc1F [1.321, 2-(5-fluoro-6-(2-isopropyl-3-oxo-6-(1,2,3,4-tetrahydroisoquinolin-6-ylamino)-2,3-dihydro-1H-pyrazolo[3,4-d]pyrimidin-1-yl)pyridin-2-yl)-2-methylpropanenitrile] | 13 nM | 11200 nM | 3540 nM |
| CC(C)n1c(=O)c2cnc(Nc3ccc4c(c3)CCNC4(C)C)nc2n1-c1ccc(F)c(C(C)(C)O)n1 [1.251, 6-((1,1-dimethyl-1,2,3,4-tetrahydroisoquinolin-6-yl)amino)-1-(5-fluoro-6-(2-hydroxypropan-2-yl)pyridin-2-yl)-2-isopropyl-1,2-dihydro-3H-pyrazolo[3,4-d]pyrimidin-3-one] | 7 nM | 6690 nM | 12400 nM |
| CC(C)(F)c1nc(-n2c3nc(Nc4ccc5c(c4)CCNC5(C)C)ncc3c(=O)n2C2CC2)ccc1F [1.5, 2-cyclopropyl-6-((1,1-dimethyl-1,2,3,4-tetrahydroisoquinolin-6-yl)amino)-1-(5-fluoro-6-(2-fluoropropan-2-yl)pyridin-2-yl)-1,2-dihydro-3H-pyrazolo[3,4-d]pyrimidin-3-one] | 5 nM | 5500 nM | 7600 nM |
| CC(C)n1c(=O)c2cnc(Nc3ccc4c(c3)CNCC43CC3)nc2n1-c1ccc(F)c(C(C)(C)O)n1 [1.254, 6-((2′,3′-dihydro-1′H-spiro[cyclopropane-1,4′-isoquinolin]-7′-yl)amino)-1-(5-fluoro-6-(2-hydroxypropan-2-yl)pyridin-2-yl)-2-isopropyl-1,2-dihydro-3H-pyrazolo[3,4-d]pyrimidin-3-one] | 140 nM | 3560 nM |  |

Second part, led by results:

| IC50 (WEE1 kinase enzyme) | IC50 (PKMYT1 kinase) | SMILES | IC50 (A427 cells) |
| --- | --- | --- | --- |
| 18 nM |  | CCn1c(=O)c2cnc(Nc3ccc4c(c3)CCNC4(C)C)nc2n1-c1ccnc(C2(C#N)CC2)c1 [1.63, 1-(4-(6-((1,1-dimethyl-1,2,3,4-tetrahydroisoquinolin-6-yl)amino)-2-ethyl-3-oxo-2,3-dihydro-1H-pyrazolo[3,4-d]pyrimidin-1-yl)pyridin-2-yl)cyclopropane-1-carbonitrile] | 17200 nM |
| 4 nM | 121 nM | CCn1c(=O)c2cnc(Nc3ccc4c(c3)CNCC4(C)C)nc2n1-c1cccc(C2(C#N)CC2)n1 [1.40, 1-(6-(6-((4,4-dimethyl-1,2,3,4-tetrahydroisoquinolin-7-yl)amino)-2-ethyl-3-oxo-2,3-dihydro-1H-pyrazolo[3,4-d]pyrimidin-1-yl)pyridin-2-yl)cyclopropane-1-carbonitrile] |  |
| 1 nM |  | CCn1c(=O)c2cnc(Nc3ccc4c(c3)CCNC43CC3)nc2n1-c1cccc(C2(C#N)CC2)n1 [1.42, 1-(6-(6-(2′,3′-dihydro-1^1H-spiro[cyclopropane-1,4′-isoquinoline]-7′-ylamino)-2-ethyl-3-oxo-2,3-dihydro-1H-pyrazolo[3,4-d]pyrimidin-1-yl)pyridin-2-yl)cyclopropanecarbonitrile] | 255 nM |
| 8 nM | 767 nM | N#CC1(c2cccc(-n3c4nc(Nc5ccc6c(c5)CNCC6)ncc4c(=O)n3CC(F)(F)F)n2)CC1 [1.32, 1-(6-(3-oxo-6-(1,2,3,4-tetrahydroisoquinolin-7-ylamino)-2-(2,2,2-trifluoroethyl)-2,3-dihydro-1H-pyrazolo[3,4-d]pyrimidin-1-yl)pyridin-2-yl)cyclopropanecarbonitrile] | 870 nM |
| 8 nM | 16800 nM | CCn1c(=O)c2cnc(Nc3ccc4c(c3)CNCC4)nc2n1-c1ccc(F)c(C(C)(C)O)n1 [1.262, 2-ethyl-1-(5-fluoro-6-(2-hydroxypropan-2-yl)pyridin-2-yl)-6-((1,2,3,4-tetrahydroisoquinolin-7-yl)amino)-1,2-dihydro-3H-pyrazolo[3,4-d]pyrimidin-3-one] |  |
| 3 nM | 1170 nM | CC(C)n1c(=O)c2cnc(Nc3ccc4c(c3)CNCC4)nc2n1-c1cccc(C2(C#N)CC2)n1 [1.44, 1-(6-(2-isopropyl-3-oxo-6-((1,2,3,4-tetrahydroisoquinolin-7-yl)amino)-2,3-dihydro-1H-pyrazolo[3,4-d]pyrimidin-1-yl)pyridin-2-yl)cyclopropane-1-carbonitrile] | 892 nM |
| 1 nM |  | CCn1c(=O)c2cnc(Nc3ccc4c(c3)CCNC4(C)C)nc2n1-c1cccc(C2(C#N)CC2)n1 [1.39, 1-(6-(6-(1,1-dimethyl-1,2,3,4-tetrahydroisoquinolin-6-ylamino)-2-ethyl-3-oxo-2,3-dihydro-1H-pyrazolo[3,4-d]pyrimidin-1-yl)pyridin-2-yl)cyclopropanecarbonitrile] | 510 nM |
| 5 nM |  | CCn1c(=O)c2cnc(Nc3ccc4c(c3)CCNC4(C)C)nc2n1-c1nc(C(C)(C)C#N)ccc1F [1.335, 2-(6-(6-(1,1-dimethyl-1,2,3,4-tetrahydroisoquinolin-6-ylamino)-2-ethyl-3-oxo-2,3-dihydro-1H-pyrazolo[3,4-d]pyrimidin-1-yl)-5-fluoropyridin-2-yl)-2-methylpropanenitrile] | 4730 nM |
| 2 nM | 4200 nM | CCn1c(=O)c2cnc(Nc3ccc4c(c3)CNCC4)nc2n1-c1cccc(C2(CF)CC2)n1 [1.86, 2-ethyl-1-(6-(1-(fluoromethyl)cyclopropyl)pyridin-2-yl)-6-((1,2,3,4-tetrahydroisoquinolin-7-yl)amino)-1,2-dihydro-3H-pyrazolo[3,4-d]pyrimidin-3-one] | 685 nM |
| 3 nM | 6920 nM | CC(C)n1c(=O)c2cnc(Nc3ccc4c(c3)CCNC4)nc2n1-c1cccc(C2(CF)CC2)n1 [1.91, 1-(6-(1-(fluoromethyl)cyclopropyl)pyridin-2-yl)-2-isopropyl-6-((1,2,3,4-tetrahydroisoquinolin-6-yl)amino)-1,2-dihydro-3H-pyrazolo[3,4-d]pyrimidin-3-one] |  |
